ChEMBL document CHEMBL1134130, “Carbonic anhydrase inhibitors: 4-sulfamoyl-benzenecarboxamides and 4-chloro-3-sulfamoyl-benzenecarboxamides with strong topical antiglaucoma properties” (Bioorg Med Chem Lett, 2001)

Assays:
Carbonic anhydrase 2 = Carbonic anhydrase 2 (Homo sapiens, UniProt P00918)
Description: Binding affinity against human carbonic anhydrase II (hCA -II)

Carbonic anhydrase 4 [1] = biological target: T1, Carbonic anhydrase 4 (Bos taurus, UniProt Q95323)
T1 sequence (Q95323 whole entry): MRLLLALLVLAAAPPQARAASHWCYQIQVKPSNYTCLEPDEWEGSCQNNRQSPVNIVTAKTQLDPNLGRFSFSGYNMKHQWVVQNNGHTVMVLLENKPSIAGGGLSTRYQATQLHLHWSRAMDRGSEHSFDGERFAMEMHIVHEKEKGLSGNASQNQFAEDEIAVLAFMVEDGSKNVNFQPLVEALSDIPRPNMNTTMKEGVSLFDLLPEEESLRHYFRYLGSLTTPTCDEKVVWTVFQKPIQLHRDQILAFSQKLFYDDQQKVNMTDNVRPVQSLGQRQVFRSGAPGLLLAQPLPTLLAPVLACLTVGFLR
Description: Compound was evaluated for binding affinity against bovine carbonic anhydrase IV (bCA IV)

Carbonic anhydrase 1 = Carbonic anhydrase 1 (Homo sapiens, UniProt P00915)
Sequence of Carbonic anhydrase 1 (P00915 whole entry): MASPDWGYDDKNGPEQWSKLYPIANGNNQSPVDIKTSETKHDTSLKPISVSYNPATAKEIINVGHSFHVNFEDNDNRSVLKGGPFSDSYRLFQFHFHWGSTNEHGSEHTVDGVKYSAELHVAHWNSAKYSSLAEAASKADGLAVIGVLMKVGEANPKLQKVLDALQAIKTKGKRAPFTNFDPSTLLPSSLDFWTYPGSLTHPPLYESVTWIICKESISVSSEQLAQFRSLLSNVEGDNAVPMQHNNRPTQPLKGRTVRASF
Description: Binding affinity against human carbonic anhydrase I (hCA I)

[2] = Compound was evaluated for in vitro corneal permeability in cornea intact; assay type: ADME, tissue-based
[3] = Compound was evaluated for in vitro corneal permeability in no epithelium; assay type: ADME, tissue-based, Cornea
Oryctolagus cuniculus [4] = species on record: Oryctolagus cuniculus
Description: Fall of in vivo intraocular pressure (IOP) of glaucomatous rabbits at 120 min after treatment with one drop (50 uL) solution of 2% of CA inhibitor directly into eye

Oryctolagus cuniculus [5] = species on record: Oryctolagus cuniculus; remark: listed apart in the source
Description: Fall of in vivo intraocular pressure (IOP) of glaucomatous rabbits at 0 min after treatment with one drop (50 uL) solution of 2% of CA inhibitor directly into eye

Oryctolagus cuniculus [6] = species on record: Oryctolagus cuniculus; remark: listed apart in the source
Description: In vivo intraocular pressure (IOP) lowering at 60 min in normotensive rabbits after treatment with one drop (50 uL) 2% solution of CA inhibitor directly into the eye, at 7.0 pH

Oryctolagus cuniculus [7] = species on record: Oryctolagus cuniculus; remark: listed apart in the source
Description: In vivo intraocular pressure (IOP) lowering at 30 min in normotensive rabbits after treatment with one drop (50 uL) 2% solution of CA inhibitor directly into the eye, at 7.0 pH

Oryctolagus cuniculus [8] = species on record: Oryctolagus cuniculus; remark: listed apart in the source
Description: In vivo intraocular pressure (IOP) lowering at 120 min in normotensive rabbits after treatment with one drop (50 uL) 2% solution of CA inhibitor directly into the eye, at 7.0 pH

Oryctolagus cuniculus [9] = species on record: Oryctolagus cuniculus; remark: listed apart in the source
Description: Fall of in vivo intraocular pressure (IOP) of glaucomatous rabbits at 90 min after treatment with one drop (50 uL) solution of 2% of CA inhibitor directly into eye

Oryctolagus cuniculus [10] = species on record: Oryctolagus cuniculus; remark: listed apart in the source
Description: In vivo intraocular pressure (IOP) lowering at 90 min in normotensive rabbits after treatment with one drop (50 uL) 2% solution of CA inhibitor directly into the eye, at 7.0 pH

physchem = settings: octanol/water
Description: Partition coefficient (logP)

Oryctolagus cuniculus [11] = species on record: Oryctolagus cuniculus; remark: listed apart in the source
Description: Fall of in vivo intraocular pressure (IOP) of glaucomatous rabbits at 60 min after treatment with one drop (50 uL) solution of 2% of CA inhibitor directly into eye

Oryctolagus cuniculus [12] = species on record: Oryctolagus cuniculus; remark: listed apart in the source
Description: Fall of in vivo intraocular pressure (IOP) of glaucomatous rabbits at 30 min after treatment with one drop (50 uL) solution of 2% of CA inhibitor directly into eye

Carbonic anhydrase 4 [13] = biological target: T1, Carbonic anhydrase 4; remark: listed apart in the source
Description: Compound was evaluated for binding affinity against bovine Carbonic anhydrase IV

Row | Compound | Ki (Carbonic anhydrase 2) [nM] | Ki (Carbonic anhydrase 4 [1]) [nM] | Ki (Carbonic anhydrase 1) [nM] | further results
1 | NS(=O)(=O)c1ccc(C(=O)NCCC(=O)N[C@@H](Cc2c[nH]cn2)C(=O)O)cc1 | 16 | 21 | 270 | –
2 | CC(C)C[C@H](NC(=O)c1ccc(Cl)c(S(N)(=O)=O)c1)C(=O)O | 305 | 330 | 125 | –
3 | NS(=O)(=O)c1ccc(C(=O)N[C@@H](Cc2c[nH]cn2)C(=O)N[C@@H](Cc2ccccc2)C(=O)O)cc1 | 9 | 23 | 240 | Km x10e3 [2]: 2.9 hr-1; Km x10e3 [3]: 5.8 hr-1; Delta IOP (Oryctolagus cuniculus [4]): 10 mmHg; Delta IOP (Oryctolagus cuniculus [5]): 0 mmHg; Delta IOP (Oryctolagus cuniculus [6]): 6.5 mmHg; Delta IOP (Oryctolagus cuniculus [7]): 4.2 mmHg; Delta IOP (Oryctolagus cuniculus [8]): 9.5 mmHg; Delta IOP (Oryctolagus cuniculus [9]): 11 mmHg; Delta IOP (Oryctolagus cuniculus [10]): 9.1 mmHg; logP (physchem): 1.74; Delta IOP (Oryctolagus cuniculus [11]): 12 mmHg; Delta IOP (Oryctolagus cuniculus [12]): 7.1 mmHg
4 | NS(=O)(=O)c1cc(C(=O)NCCCC(=O)O)ccc1Cl | 400 | 540 | 200 | –
5 | NS(=O)(=O)c1cc(C(=O)N[C@@H](CO)C(=O)O)ccc1Cl | 290 | 395 | 170 | –
6 | NC(=O)CC[C@H](NC(=O)c1ccc(Cl)c(S(N)(=O)=O)c1)C(=O)O | 305 | 410 | 250 | –
7 | NS(=O)(=O)c1ccc(NC(=O)c2ccc(Cl)c(S(N)(=O)=O)c2)cc1 | 30 | 66 | 24 | –
8 | NS(=O)(=O)c1ccc(CCNC(=O)c2ccc(Cl)c(S(N)(=O)=O)c2)cc1 | 26 | 63 | 21 | –
9 | NS(=O)(=O)c1cc(C(=O)N[C@@H](CC(=O)O)C(=O)O)ccc1Cl | 300 | 355 | 285 | –
10 | CSCC[C@H](NC(=O)c1ccc(Cl)c(S(N)(=O)=O)c1)C(=O)O | 410 | 650 | 240 | –
11 | CC(C)[C@H](NC(=O)c1ccc(Cl)c(S(N)(=O)=O)c1)C(=O)O | 330 | 360 | 130 | –
12 | NS(=O)(=O)c1cc(C(=O)N[C@@H](Cc2c[nH]cn2)C(=O)N[C@@H](Cc2ccccc2)C(=O)O)ccc1Cl | 38 | 45 | 27 | –
13 | C[C@H](NC(=O)c1ccc(Cl)c(S(N)(=O)=O)c1)C(=O)N[C@@H](Cc1ccccc1)C(=O)O | 44 | 72 | 36 | –
14 | CC[C@H](C)[C@H](NC(=O)c1ccc(Cl)c(S(N)(=O)=O)c1)C(=O)O | 280 | 360 | 150 | –
15 | NS(=O)(=O)c1cc(C(=O)N[C@@H](CS)C(=O)O)ccc1Cl | 490 | 720 | 300 | –
16 | C[C@@H](O)[C@H](NC(=O)c1ccc(Cl)c(S(N)(=O)=O)c1)C(=O)O | 520 | 735 | 320 | –

Row | Compound | Ki (Carbonic anhydrase 2) [nM] | Ki (Carbonic anhydrase 4 [1]) [nM] | Ki (Carbonic anhydrase 1) [nM] | further results
17 | NS(=O)(=O)c1cc(C(=O)N[C@H](C(=O)O)C(O)c2ccccc2)ccc1Cl (stereo partly drawn) | 62 | 98 | 37 | –
18 | NS(=O)(=O)c1cc(C(=O)N[C@H](C(=O)O)c2ccccc2)ccc1Cl | 160 | 240 | 105 | –
19 | NS(=O)(=O)c1cc(C(=O)N[C@@H](Cc2c[nH]cn2)C(=O)NCC(=O)O)ccc1Cl | 50 | 73 | 41 | –
20 | C[C@H](NC(=O)c1ccc(Cl)c(S(N)(=O)=O)c1)C(=O)O | 420 | 475 | 175 | –
21 | NS(=O)(=O)c1cc(C(=O)Nc2nnc(S)s2)ccc1Cl | 11 | 21 | 15 | –
22 | NS(=O)(=O)c1cc(C(=O)N[C@@H](CCC(=O)O)C(=O)O)ccc1Cl | 340 | 400 | 305 | –
23 | NS(=O)(=O)c1ccc(CNC(=O)c2ccc(Cl)c(S(N)(=O)=O)c2)cc1 | 28 | 61 | 24 | –
24 | NS(=O)(=O)c1cc(C(=O)N[C@@H](Cc2ccc(O)cc2)C(=O)O)ccc1Cl | 250 | 325 | 115 | –
25 | C[C@H](NC(=O)c1ccc(S(N)(=O)=O)cc1)C(=O)N[C@@H](Cc1ccccc1)C(=O)O | 12 | 24 | 320 | –
26 | NS(=O)(=O)c1ccc(C(=O)N[C@@H](Cc2c[nH]cn2)C(=O)NCC(=O)O)cc1 | 10 | 19 | 380 | –
27 | NS(=O)(=O)c1cc(C(=O)NC(Cc2ccc(O)c(O)c2)C(=O)O)ccc1Cl (stereo not drawn) | 240 | 330 | 100 | –
28 | NS(=O)(=O)c1cc(C(=O)N[C@@H](Cc2c[nH]cn2)C(=O)O)ccc1Cl | 210 | 350 | 103 | –
29 | NS(=O)(=O)c1cc(C(=O)N[C@@H](Cc2ccccc2)C(=O)O)ccc1Cl | 250 | 340 | 135 | –
30 | NC(=O)C[C@H](NC(=O)c1ccc(Cl)c(S(N)(=O)=O)c1)C(=O)O | 275 | 330 | 240 | –
31 | NS(=O)(=O)c1cc(C(=O)NCCC(=O)N[C@@H](Cc2cnc[nH]2)C(=O)O)ccc1Cl | 36 | 50 | 30 | –
32 | CC(C)C[C@H](NC(=O)c1ccc(Cl)c(S(N)(=O)=O)c1)C(=O)NCC(=O)O | 51 | 80 | 39 | –

Now from value to molecule, other results behind:

Row | Ki (Carbonic anhydrase 2) [nM] | Ki (Carbonic anhydrase 4 [1]) [nM] | Ki (Carbonic anhydrase 1) [nM] | Compound | further results
33 | 72 | 155 | 410 | NC(=O)C[C@H](NC(=O)c1ccc(S(N)(=O)=O)cc1)C(=O)O | –
34 | 85 | – | 500 | NS(=O)(=O)c1ccc(C(=O)NCC(=O)O)cc1 | Ki (Carbonic anhydrase 4 [13]): 200 nM
35 | 450 | 600 | 210 | NS(=O)(=O)c1cc(C(=O)NCC(=O)O)ccc1Cl | –
36 | 48 | 86 | 350 | CCC(C)[C@H](NC(=O)c1ccc(S(N)(=O)=O)cc1)C(=O)O (single isomer, unassigned) | –
37 | 85 | 170 | 69 | NS(=O)(=O)c1cc(C(=O)NCC(=O)NCC(=O)O)ccc1Cl | –
38 | 66 | 150 | 400 | CSCC[C@H](NC(=O)c1ccc(S(N)(=O)=O)cc1)C(=O)O | –
39 | 115 | 350 | 475 | C[C@@H](O)[C@H](NC(=O)c1ccc(S(N)(=O)=O)cc1)C(=O)O | –
40 | 74 | 160 | 430 | NS(=O)(=O)c1ccc(C(=O)N[C@@H](CCC(=O)O)C(=O)O)cc1 | –
41 | 79 | 75 | 425 | C[C@H](NC(=O)c1ccc(S(N)(=O)=O)cc1)C(=O)O | –
42 | 74 | 150 | 420 | CC(C)[C@H](NC(=O)c1ccc(S(N)(=O)=O)cc1)C(=O)O | –
43 | 21 | 62 | 54 | NS(=O)(=O)c1ccc(C(=O)N[C@H](C(=O)O)C(O)c2ccccc2)cc1 (stereo partly drawn) | –
44 | 75 | 160 | 425 | NC(=O)CC[C@H](NC(=O)c1ccc(S(N)(=O)=O)cc1)C(=O)O | –
45 | 73 | 150 | 425 | NS(=O)(=O)c1ccc(C(=O)N[C@@H](CC(=O)O)C(=O)O)cc1 | –
46 | 45 | 120 | 535 | NS(=O)(=O)c1ccc(C(=O)N[C@@H](Cc2ccc(O)cc2)C(=O)O)cc1 | –
47 | 42 | 50 | 350 | NS(=O)(=O)c1ccc(C(=O)NCC(=O)NCC(=O)O)cc1 | –
48 | 7 | 16 | 40 | NS(=O)(=O)c1ccc(CNC(=O)c2ccc(S(N)(=O)=O)cc2)cc1 | –
49 | – | 13 | – | NS(=O)(=O)c1ccc(CCNC(=O)c2ccc(S(N)(=O)=O)cc2)cc1 | Km x10e3 [2]: 2.5 hr-1; Km x10e3 [3]: 6.3 hr-1; logP (physchem): 1.43
50 | 73 | 120 | 415 | NS(=O)(=O)c1ccc(C(=O)NCCCC(=O)O)cc1 | –
51 | 40 | 125 | 270 | NS(=O)(=O)c1ccc(C(=O)N[C@@H](Cc2cnc[nH]2)C(=O)O)cc1 | –
52 | 110 | 230 | 450 | NS(=O)(=O)c1ccc(C(=O)N[C@@H](CS)C(=O)O)cc1 | –
53 | 85 | – | 435 | NS(=O)(=O)c1ccc(C(=O)NCCC(=O)O)cc1 | Ki (Carbonic anhydrase 4 [13]): 190 nM
54 | 52 | 130 | 560 | NS(=O)(=O)c1ccc(C(=O)N[C@@H](Cc2ccccc2)C(=O)O)cc1 | –
55 | 43 | 105 | 520 | NS(=O)(=O)c1ccc(C(=O)NC(Cc2ccc(O)c(O)c2)C(=O)O)cc1 (stereo not drawn) | –
56 | 450 | 610 | 205 | NS(=O)(=O)c1cc(C(=O)NCCC(=O)O)ccc1Cl | –
57 | 3 | 15 | 35 | NS(=O)(=O)c1ccc(C(=O)Nc2nnc(S(N)(=O)=O)s2)cc1 | –
58 | 53 | 90 | 405 | CC(C)C[C@H](NC(=O)c1ccc(S(N)(=O)=O)cc1)C(=O)O | –
59 | 36 | 75 | 250 | NS(=O)(=O)c1ccc(C(=O)NC(C(=O)O)c2ccccc2)cc1 (stereo not drawn) | –
60 | 120 | 325 | 440 | NS(=O)(=O)c1ccc(C(=O)N[C@@H](CO)C(=O)O)cc1 | –
